Experimental data as given in ChEMBL document CHEMBL1201862, “PubChem BioAssay data set” (2004).
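Protocol summary: plate cells (96-well), add compound at 5 concentrations, incubate 48 h, interpolate endpoints linearly. GI50 marks 50% less growth.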 Activity calls are given as the source filed them. Rule as the data show it: active = GI50 up to about 1.1 µM and inactive = higher.

Columns and labels:
Test in all cases: inhibition of tumour cell growth, NCI panel, 48 h
SK-MEL-5 = system: SK-MEL-5
OVCAR-8 = system: OVCAR-8
K562 = system: K562
SF-295 = system: SF-295
HL-60 = system: HL-60
COLO 205 = system: COLO 205
SN12C = system: SN12C
NCI-H23 = system: NCI-H23
UO-31 = system: UO-31
786-0 = system: 786-0
ACHN = system: ACHN
A498 = system: A498
RXF 393 = system: RXF 393
SK-MEL-2 = system: SK-MEL-2
KM12 = system: KM12
CAKI-1 = system: CAKI-1

Measured: GI50

CSc1ccc(NC(=O)C2c3[nH]c4ccccc4c3C3CCC(C(C)(C)C)CC3C2C(=O)O)cc1 (stereo not given)
inactive: SK-MEL-5 21.1 µM | OVCAR-8 14.8 µM | K562 32.3 µM | SF-295 17.6 µM | HL-60 9.42 µM | COLO 205 18 µM | SN12C 18.6 µM | NCI-H23 20.1 µM | UO-31 17.5 µM | 786-0 17.5 µM | ACHN 15.3 µM | A498 17.9 µM | RXF 393 20 µM

CCOC(=O)N1CCC(=O)C[C@@H]1C/C=C/P1(=O)O[C@H](c2ccccc2)C(C)N1C(C)C (stereo not given in full)
inactive: SK-MEL-5 > 100 µM | OVCAR-8 > 100 µM | K562 > 100 µM | SF-295 > 100 µM | SK-MEL-2 > 100 µM | SN12C > 100 µM | KM12 > 100 µM | NCI-H23 > 100 µM | UO-31 > 100 µM | 786-0 > 100 µM | CAKI-1 > 100 µM | ACHN > 100 µM | RXF 393 > 100 µM

COCCNC(=O)C1C(=O)N(CCOC)C(=O)/C1=N/N (stereo not given)
inactive: K562 > 100 µM | SF-295 > 100 µM | HL-60 > 100 µM | SK-MEL-2 > 100 µM | SN12C > 100 µM | KM12 > 100 µM | NCI-H23 > 100 µM | UO-31 > 100 µM | 786-0 > 100 µM | CAKI-1 > 100 µM | ACHN > 100 µM

Cc1cc(O)nc(CNC(=O)c2cccc3ccccc23)n1
inactive: SK-MEL-5 > 100 µM | OVCAR-8 > 100 µM | K562 > 100 µM | SF-295 > 100 µM | HL-60 > 100 µM | COLO 205 > 100 µM | SN12C > 100 µM | NCI-H23 > 100 µM | UO-31 > 100 µM | 786-0 > 100 µM | CAKI-1 > 100 µM | ACHN > 100 µM | A498 > 100 µM | RXF 393 > 100 µM

COC1C2C[C@@H](O)CCC2C(C(=O)OCCl)C[C@H]1O (stereo not given in full)
inactive: SK-MEL-5 > 100 µM | OVCAR-8 > 100 µM | K562 > 100 µM | HL-60 > 100 µM | COLO 205 > 100 µM | SK-MEL-2 > 100 µM | SN12C > 100 µM | KM12 > 100 µM | UO-31 > 100 µM | 786-0 > 100 µM | CAKI-1 > 100 µM | ACHN > 100 µM | A498 > 100 µM | RXF 393 > 100 µM

NC1=NC(Cn2nc(-c3ccccc3)c3ccccc3c2=O)=NNC(=O)N1
inactive: SK-MEL-5 > 100 µM | OVCAR-8 > 100 µM | K562 > 100 µM | SF-295 > 100 µM | COLO 205 > 100 µM | SK-MEL-2 > 100 µM | SN12C > 100 µM | KM12 > 100 µM | NCI-H23 > 100 µM | UO-31 > 100 µM | 786-0 > 100 µM | CAKI-1 > 100 µM | ACHN > 100 µM | A498 > 100 µM

CC(C)c1ccc2c(c1)CCC1C(C)(C)[C@@H](O)CC[C@]21C (stereo not given in full)
inactive: SK-MEL-5 17.3 µM | OVCAR-8 36.4 µM | K562 24.9 µM | SF-295 18.3 µM | HL-60 17.7 µM | COLO 205 18.6 µM | SN12C 20.9 µM | KM12 22.3 µM | NCI-H23 29.8 µM | UO-31 69.5 µM | 786-0 22.5 µM | CAKI-1 50.1 µM | ACHN 47.4 µM | RXF 393 21.1 µM

CCSc1c2ccccc2c(-c2nc(F)nc(F)n2)n1CCc1ccccc1
inactive: K562 > 100 µM | SF-295 > 100 µM | HL-60 > 100 µM | COLO 205 > 100 µM | SK-MEL-2 > 100 µM | SN12C > 100 µM | KM12 > 100 µM | NCI-H23 > 100 µM | UO-31 > 100 µM | 786-0 > 100 µM | CAKI-1 > 100 µM | ACHN > 100 µM | A498 86.5 µM | RXF 393 > 100 µM

CC(C)C1COC(c2cccc(C3=N[C@@H](C(C)C)CO3)n2)=N1 (stereo not given in full)
inactive: SK-MEL-5 > 100 µM | K562 > 100 µM | SF-295 > 100 µM | HL-60 > 100 µM | COLO 205 > 100 µM | SK-MEL-2 > 100 µM | SN12C > 100 µM | KM12 > 100 µM | NCI-H23 > 100 µM | UO-31 98.6 µM | 786-0 > 100 µM | CAKI-1 > 100 µM | ACHN > 100 µM | A498 > 100 µM | RXF 393 > 100 µM

N#Cc1cccc(N2C(=O)c3c(c(-c4ccccc4)c(-c4ccc(Sc5ccc(-c6c(-c7ccccc7)c7c(c(-c8ccccc8)c6-c6ccccc6)C(=O)N(c6cccc(C#N)c6)C7=O)cc5)cc4)c(-c4ccccc4)c3-c3ccccc3)C2=O)c1
inactive: SK-MEL-5 77.6 µM | OVCAR-8 45.9 µM | K562 > 100 µM | SF-295 > 100 µM | HL-60 > 100 µM | COLO 205 > 100 µM | SK-MEL-2 > 100 µM | SN12C 23.9 µM | KM12 > 100 µM | NCI-H23 > 100 µM | UO-31 91.8 µM | 786-0 > 100 µM | ACHN > 100 µM | RXF 393 16.9 µM

CC(C)=CCC/C(=C/CC/C(C)=C/CCc1ccoc1)C(=O)O
inactive: SK-MEL-5 > 100 µM | OVCAR-8 > 100 µM | K562 > 100 µM | SF-295 > 100 µM | COLO 205 > 100 µM | SK-MEL-2 > 100 µM | SN12C > 100 µM | KM12 > 100 µM | NCI-H23 > 100 µM | UO-31 > 100 µM | 786-0 > 100 µM | ACHN > 100 µM | A498 > 100 µM | RXF 393 > 100 µM

CS/C(C)=N/OC(=O)NCCCCNc1ccc(N=[N+]=[N-])cc1
inactive: SK-MEL-5 16.7 µM | OVCAR-8 47.9 µM | K562 30.8 µM | SF-295 28.5 µM | COLO 205 36.1 µM | SN12C 59.2 µM | KM12 29.5 µM | NCI-H23 34.9 µM | UO-31 20.7 µM | 786-0 76.7 µM | CAKI-1 36.5 µM | ACHN 26.2 µM | A498 47 µM | RXF 393 46 µM

COCC12CC(CC1=O)C1C2ON2c3ccccc3C(=O)C12c1ccccc1 (stereo not given)
inactive: SK-MEL-5 > 100 µM | OVCAR-8 > 100 µM | K562 63.7 µM | SF-295 > 100 µM | HL-60 76.4 µM | COLO 205 > 100 µM | SN12C > 100 µM | NCI-H23 > 100 µM | UO-31 > 100 µM | 786-0 > 100 µM | ACHN > 100 µM | A498 > 100 µM | RXF 393 33.3 µM

c1csc(C[N+]23CN4CN(CN(C4)C2)C3)c1
inactive: SK-MEL-5 19.3 µM | OVCAR-8 28.2 µM | K562 20 µM | SF-295 > 100 µM | HL-60 14.7 µM | COLO 205 20 µM | SK-MEL-2 19.7 µM | KM12 > 100 µM | NCI-H23 > 100 µM | UO-31 > 100 µM | 786-0 22.6 µM | CAKI-1 25.8 µM | ACHN 37.5 µM
